Measured values as given in article PMC11274128, “Modification and Synergistic Studies of a Novel Frog Antimicrobial Peptide against Pseudomonas aeruginosa Biofilms” (Antibiotics, 2024).
Converted amounts (≈) assume the structure as drawn. Read-outs that look alike come from different tables or passages of the source. Bridge positions count the residues as written; N and C are the ends. Peptide text beside a SMILES is read from it.

Legend:
[1] = system: P. aeruginosa (ATCC CRM 9027); experiment: microbe, parasite or virus in culture; type: cell-based, Pseudomonas aeruginosa; settings: planktonic P. aeruginosa ATCC CRM 9027
A. baumannii (BAA 747) = experiment: microbe, parasite or virus in culture; type: cell-based, Acinetobacter baumannii; settings: planktonic A. baumannii BAA 747
C. albicans (ATCC 10231) = type: cell-based, Candida albicans; settings: yeast C. albicans ATCC 10231
Source text: The minimum inhibitory concentration (MIC) is the minimum concentration of an antimicrobial agent that prevents the visible growth of a bacterium or bacteria. The MIC is an important piece of data for research on new antimicrobial agents and helps in the effective selection of antibiotics to improve the success of treatment. The minimum bactericidal concentration (MBC) is defined as the lowest antibiotic concentration that kills 99.9% of the inoculum. This study mainly contained eight different microorganisms, which were Staphylococcus aureus (ATCC 6538), methicillin-resistant Staphylococcus aureus (NCTC 12493), Enterococcus faecalis (NCTC 12697), Escherichia coli (ATCC 8739), Klebsiella pneumoniae (ATCC 43816), Pseudomonas aeruginosa (ATCC CRM 9027), Acinetobacter baumannii (BAA 747), and Candida albicans (ATCC 10231). The bacteria were incubated in the compatible medium at 37 °C overnight.

Yeast = experiment: Geometric mean of MICs and TI value; type: cell-based, Candida albicans; settings: C. albicans ATCC 10231
Experimental: The therapeutic potential of antimicrobial agents was valued based on their selectivity toward bacteria in reference to erythrocytes. The TI value was calculated from the results of antibacterial and haemolysis experiments of peptides using the following formula:TI value = HC10 / GMMICs.
GM was the geometric mean of MICs against all tested bacteria.

A. baumannii BAA 747 = settings: checkerboard MIC, planktonic A. baumannii BAA 747, 37 °C, 24 h, OD 550 nm
Experimental: (§1) The bacteria were cultured, subcultured, diluted, and incubated as the methods of the MIC assay. The pure peptides and antibiotics were weighed and, respectively, dissolved in DMSO and dd water to make the final concentration of 2× MIC. […] Different concentrations of peptide and antibiotic solutions were added to a 96-well plate in the form of a checkerboard grid. The blank control and growth control were still 100 µL medium and 100 µL bacterial culture. The plate was incubated at 37 °C for 24 h. After that, the plate reader was used to monitor the absorbance of each well at 550 nm (The Synergy TM HT, BioTek, Winooski, VT, USA).
(§2) Parameter fractional inhibitory concentration indices (FICIs) were used to evaluate the synergistic effect, and the value of that was calculated as follows:FICI = FICa + FICb FICa = MIC combination peptide/MIC single peptide FICb = MIC combination antibiotic/MIC single antibiotic
(§3) The FICI value was interpreted as “synergy” (FICI ≤ 0.5), “no interaction” (0.5 < FICI ≤ 4), or “antagonism” (FICI > 4).

E. coli ATCC 8739 = settings: checkerboard MIC, planktonic E. coli ATCC 8739, 37 °C, 24 h, OD 550 nm
Experimental: as §1, §2, §3

E. faecalis NCTC 12697 = settings: checkerboard MIC, planktonic E. faecalis NCTC 12697, 37 °C, 24 h, OD 550 nm
Experimental: as §1, §2, §3

K. pneumoniae ATCC 43816 = settings: checkerboard MIC, planktonic K. pneumoniae ATCC 43816, 37 °C, 24 h, OD 550 nm
Experimental: as §1, §2, §3

MRSA NCTC 12493 = settings: checkerboard MIC, planktonic MRSA NCTC 12493, 37 °C, 24 h, OD 550 nm
Experimental: as §1, §2, §3

[2] = system: P. aeruginosa ATCC CRM 9027; settings: checkerboard MIC, planktonic P. aeruginosa ATCC CRM 9027, 37 °C, 24 h, OD 550 nm
Experimental: as §1, §2, §3

S. aureus ATCC 6538 = settings: checkerboard MIC, planktonic S. aureus ATCC 6538, 37 °C, 24 h, OD 550 nm
Experimental: as §1, §2, §3

[3] = system: E. faecalis NCTC 12697 biofilm; type: cell-based, Enterococcus faecalis
Source text: (§4) The minimum bactericidal concentration (MBC) is defined as the lowest antibiotic concentration that kills 99.9% of the inoculum. The minimum biofilm inhibitory concentration (MBIC) is the lowest concentration that inhibits at least 90% of the formation of biofilm. The minimum biofilm eradication concentration (MBEC) is the minimum concentration that can eradicate at least 99% of the biofilm. In addition to the eight microorganisms described previously, this experiment was also applied to P. aeruginosa (ATCC 27853, ATCC BAA-2108, P. aeruginosa 01, P. aeruginosa 14).

[4] = system: A. baumannii BAA 747 biofilm; type: cell-based, Acinetobacter baumannii
Source text: as §4

[5] = system: E. faecalis NCTC 12697 biofilm; experiment: Peptide and antibiotic co-administration MBIC checkerboard assay; type: cell-based, Enterococcus faecalis; settings: peptide combined with cefepime, 24 h, crystal violet, 595 nm
Source text: The plate was then carefully cleaned under running water.

[6] = 37 °C, nine repeats of three independent experiments
[7] = lowest concentration killing 99.9% of inoculum
[8] = peptide combined with gentamicin
[9] = peptide combined with levofloxacin
[10] = peptide combined with vancomycin
[11] = lowest concentration inhibiting at least 90% of biofilm formation
[12] = minimum concentration eradicating at least 99% of the biofilm

`CC[C@H](C)[C@H](NC(=O)[C@H](CCCCN)NC(=O)[C@H](CCCCN)NC(=O)CNC(=O)[C@H](C)NC(=O)[C@H](CCCNC(=N)N)NC(=O)[C@H](CC(C)C)NC(=O)[C@@H](NC(=O)[C@H](C)NC(=O)[C@H](CCCNC(=N)N)NC(=O)[C@H](CC(C)C)NC(=O)[C@H](CC(C)C)NC(=O)CN)C(C)C)C(=O)N[C@H](C(=O)N[C@H]1CSSC[C@@H](C(=O)O)NC(=O)[C@H](CCCNC(=N)N)NC(=O)CNC(=O)[C@H](CO)NC(=O)[C@H](CC(C)C)NC(=O)CNC1=O)C(C)C` [Peptide 2170-2R] (H-GLLRAVLRAGKKIVCGLSGRC-OH; disulfide 15-21) gave an MIC [1, 6] of 32 µM (≈ 69.4 µg/mL), an MBC [1, 7] of 32 µM (≈ 69.4 µg/mL) and an MIC (A. baumannii (BAA 747); 37 °C, nine repeats of three independent experiments, read-out: MIC) of 4 µM (≈ 8.67 µg/mL). For the same molecule, the MBC (A. baumannii (BAA 747); lowest concentration killing 99.9% of inoculum, read-out: MBC) was 8 µM (≈ 17.3 µg/mL), the MIC (C. albicans (ATCC 10231); [6]) was 64 µM (≈ 139 µg/mL) and the MBC (C. albicans (ATCC 10231); [7]) was 128 µM (≈ 278 µg/mL). The “GM (geometric mean of MICs), Yeast” value (Yeast) was 64.00 µM, the FICI (A. baumannii BAA 747; peptide combined with cefepime) was 1.5 and the FICI (A. baumannii BAA 747; [8]) was 0.25. It also gave an FICI (A. baumannii BAA 747; [9]) of over 4, an FICI (A. baumannii BAA 747; [10]) of 0.625 and an FICI (E. coli ATCC 8739; peptide combined with cefepime) of 0.5312. It also gave an FICI (E. coli ATCC 8739; [8]) of 0.125, an FICI (E. coli ATCC 8739; [9]) of 0.375 and an FICI (E. coli ATCC 8739; [10]) of over 4. It also gave an FICI (E. faecalis NCTC 12697; peptide combined with cefepime) of 0.1562, an FICI (E. faecalis NCTC 12697; [8]) of 0.625 and an FICI (E. faecalis NCTC 12697; [9]) of 0.625. It also gave an FICI (E. faecalis NCTC 12697; [10]) of 0.625, an FICI (K. pneumoniae ATCC 43816; peptide combined with cefepime) of 0.1875 and an FICI (K. pneumoniae ATCC 43816; [8]) of 0.1562. The FICI (K. pneumoniae ATCC 43816; [9]) was 1, the FICI (K. pneumoniae ATCC 43816; [10]) was 1.125 and the FICI (MRSA NCTC 12493; peptide combined with cefepime) was 0.75. For the same molecule, the FICI (MRSA NCTC 12493; [8]) was 0.375, the FICI (MRSA NCTC 12493; [9]) was 1.125 and the FICI (MRSA NCTC 12493; [10]) was 0.625. The FICI ([2]; peptide combined with cefepime) was 0.5, the FICI [2, 8] was 0.5 and the FICI [2, 9] was 0.625. It also gave an FICI [2, 10] of 1.125, an FICI (S. aureus ATCC 6538; peptide combined with cefepime) of 1 and an FICI (S. aureus ATCC 6538; [8]) of 1. For the same molecule, the FICI (S. aureus ATCC 6538; [9]) was 0.625, the FICI (S. aureus ATCC 6538; [10]) was 0.625 and the MBIC [3, 11] was 32 µM. The MBEC [3, 12] was over 128 µM, the MBIC [4, 11] was 8 µM and the MBEC [4, 12] was 16 µM. The “Biofilm FICI” value [5] was 0.375.
